Reference: patent US6323369A, “Substituted cycloheptenes, their preparation and use” (Gruenenthal GmbH, priority 1998, dated 2001)
Where a name gives a salt, the structure may show the parent alone.

What was measured:
[1] = molecular target: T1, δ-opiate receptor (Rattus norvegicus, UniProt P33533); experiment: δ-opiate receptor bonding test ((3H)-2-D-ala-deltorphin II displacement); format: binding, rat (male Wistar); conditions: rat brain membrane homogenate, 1 nmol/l (3H)-2-D-ala-deltorphin II, 90 min at 37° C., pH 7.4; mean ± standard deviation of 3 independent trials
T1 construct: performed in brain membrane homogenates; from tissue; host or cells: rat brain without cerebellum, pons and medulla oblongata, male Wistar rats (membrane homogenate)
Description: Tests on determining the affinity of compounds of the formula I according to the invention for the δ-opiate receptor were performed in brain membrane homogenates (homogenate from rat brain without the cerebellum, pons and medulla oblongata from male Wistar rats). In this case, freshly prepared rat brain was homogenised each time, cooled by ice, in 50 mmol/l of tris-HCl (tris-(hydroxymethyl)-aminomethane hydrochloride) (pH 7.4) and centrifuged for 10 min at 5,000 g and 4° C. After decanting and discarding the supernatant liquid, the membrane sediment was again taken up in 50 mmol/l of tris-HCl (pH 7.4) and homogenised and the homogenate was then centrifuged for 20 min at 20,000 g and 4° C. This wash stage was repeated once more. Then the supernatant liquid was decanted and the membrane sediment was homogenised in cold 50 mmol/l tris-HCl, 20% glycerol (w:v), 0.01% bacitracin (w/v) (pH 7.4) and frozen in portions until tested. For the receptor bonding tests, the portions were thawed out and diluted 1:10 with the bonding test buffer. A 50 mmol/l tris-HCl, 5 mmol/l MgCl2 (pH 7.4) supplemented with 0.1% (w:v) of bovine serum albumin was used as buffer, and 1 nmol/l of (^3 H)-2-D-ala-deltorphin II was used as a radioactive ligand in the bonding test. The proportion of non-specific bonding was determined in the presence of […] of naloxon. In further batches, the compounds according to the invention were added in a number of concentrations and the displacement of the radioactive ligand from its specific bond was determined. Three identical batches were incubated for 90 min at 37° C. and then harvested in order to determine the radioactive ligand bonded to the membrane homogenate by means of filtration through a glass fibre filter (GF/B). The radioactivity of the glass fibre filter discs was measured in a beta-counter by adding a scintillator. The affinity of compounds according to the invention for the δ-opiate receptor was calculated as IC50 in accordance with the law of mass action using non-linear regression. The K values in table 1 are given as the average value plus or minus the standard deviation of 3 quite independent trials.

[2] = test system: phenylquinone-induced writhing in mice; experiment: Anti-nociceptive activity in phenylquinone-induced writhing test in mice; format: in vivo, mouse (male NMRI); conditions: Mus musculus, iv, 10 min; i.v., phenylquinone i.p. 10 min after compound, writhing counted 5-20 min after phenylquinone; 10 animals per dose; 95% confidence range in parentheses
Description: The anti-nociceptive effectiveness was tested in phenylquinone-induced writhing in mice, modified by I. C.Hendershot, J. Forsaith, J. Pharmacol. Exp. Ther. 125, 237-240 (1959). Here, male NMRI mice with a weight of 25-30 g were used. 10 min after intravenous administration of a compound according to the invention, 0.3 ml/mouse of a 0.02% strength aqueous solution of phenylquinone was administered intraperitoneally to groups of 10 animals per substance dose (phenylbenzoquinone, Sigma, Deisenhofen; solution prepared by adding 5% ethanol and storing in a water bath at 45° C.). The animals were placed individually in observation cages. Using a push button counter,the number of pain-induced stretching movements (so-called writhing reactions=straightening the body while stretching out the back extremities) was counted 5-20 min after administration of the phenylquinone. From the dose-dependent decrease in writhing reactions as compared with groups of animals tested in parallel to which no compounds according to the invention had been administered, the ED50 values for the writhing reaction were calculated using regression analysis (evaluation programme Martens EDV service, Eckental).

T1 sequence (P33533 whole entry): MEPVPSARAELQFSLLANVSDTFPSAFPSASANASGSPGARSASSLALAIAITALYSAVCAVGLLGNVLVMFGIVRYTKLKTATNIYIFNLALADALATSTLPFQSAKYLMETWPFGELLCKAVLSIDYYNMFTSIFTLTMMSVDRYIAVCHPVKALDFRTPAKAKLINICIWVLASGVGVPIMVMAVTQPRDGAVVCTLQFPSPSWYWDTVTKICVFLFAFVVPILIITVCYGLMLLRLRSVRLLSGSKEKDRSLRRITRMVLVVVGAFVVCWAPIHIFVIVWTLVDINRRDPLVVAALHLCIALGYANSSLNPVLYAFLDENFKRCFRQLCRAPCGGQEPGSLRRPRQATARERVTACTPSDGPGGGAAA

Compound | Ki [1] [nM] | ED50 [2] [mg/kg]
CN(C)CC1=C(c2cccc(O)c2)CC(c2cccc(O)c2)CCC1.Cl (stereo not drawn) [Example 1, 3-[2-dimethylaminomethyl-6-(3-hydroxyphenyl)-cyclohept-1-enyl]-phenol hydrochloride] | 1.4 ± 0.8 | 3.31
CN(C)CC1=C(c2cccc(O)c2)CC(c2ccc(Cl)cc2)CCC1.Cl (stereo not drawn) [Example 2a, 3-[6-(4-chlorophenyl)-2-dimethylaminomethyl-cyclohept-1-enyl]-phenol hydrochloride] | 30.3 ± 4.7 | 7.4
CN(C)CC1=C(c2cccc(O)c2)CC(c2ccccc2)CCC1.Cl (stereo not drawn) [Example 2b, 3-(2-dimethylaminomethyl-6-phenyl-cyclohept-1-enyl)-phenol hydrochloride] | 3.8 ± 0.2 | 4.48
CN(C)CC1=C(c2cccc(O)c2)CC(c2cccc3ccccc23)CCC1.Cl (stereo not drawn) [Example 2c, 3-(2-dimethylaminomethyl-6-naphth-1-yl-cyclohept-1-enyl)-phenol hydrochloride] | 24.7 ± 2.4 | 5.29
CN(C)CC1=C(c2cccc(O)c2)CC(c2ccc3ccccc3c2)CCC1.Cl (stereo not drawn) [Example 2d, 3-(2-dimethylaminomethyl-6-naphth-2-yl-cyclohept-1-enyl]-phenol hydrochloride] | 31.5 ± 5.9 | 7.56
CN(C)CC1=C(c2cccc(O)c2)CC(c2ccc(O)cc2)CCC1.Cl (stereo not drawn) [Example 2e, 3-[2-dimethylaminomethyl-6-(4-hydroxyphenyl)-cyclohept-1-enyl]-phenol hydrochloride] | 15.2 ± 4.3 | 2.25
Cc1cccc(C2CCCC(CN(C)C)=C(c3cccc(O)c3)C2)c1 (stereo not drawn) [Example 2f, 3-(2-dimethylaminomethyl-6-m-toluyl-cyclohept-1-enyl]-phenol hydrochloride] | 3.2 ± 0.8 | –
CN(C)CC1=C(c2cccc(O)c2)CC(c2cccc(C(C)(C)C)c2)CCC1 (stereo not drawn) [Example 2g, 3-[6-(3-tert-butyl-phenyl)-2-dimethylaminomethyl-cyclohept-1-enyl]-phenol hydrochloride] | 17.5 ± 5.2 | –
CN(C)CC1=C(c2cccc(O)c2)CC(c2ccc3cc(O)ccc3c2)CCC1 (stereo not drawn) [Example 2h, hydrochloride] | 19.4 ± 4.7 | 6.22
CN(C)CC1=C(c2cccc(O)c2)CC(c2ccc(O)c(F)c2)CCC1.Cl (stereo not drawn) [Example 2i, 3-[2-dimethylaminomethyl-6-(3-fluoro-4-hydroxyphenyl)-cyclohept-1-enyl]-phenol hydrochloride] | 14.6 ± 2.2 | 0.89
CN(C)CC1=C(c2cccc(O)c2)CC(c2ccccc2O)CCC1 (stereo not drawn) [Example 2j, 3-[2-dimethylaminomethyl-6-(2-hydroxyphenyl)-cyclohept-1-enyl]-phenol hydrochloride] | 24.7 ± 3.1 | –
CN(C)CC1=C(c2cccc(O)c2)CC(C2CCCCC2)CCC1 (stereo not drawn) [Example 2k, 3-(6-cyclohexyl-2-dimethylaminomethyl-cyclohept-1-enyl)-phenol hydrochloride] | 10.3 ± 2.2 | –
CN(C)CC1=C(c2cccc(O)c2)CC(CC2CCCCC2)CCC1 (stereo not drawn) [Example 2l, 3-(6-cyclohexylmethyl-2-dimethylaminomethyl-cyclohept-1-enyl)-phenol hydrochloride] | 28.6 ± 5.8 | –
CN(C)CC1=C(c2cccc(O)c2)CC(Cc2ccccc2)CCC1 (stereo not drawn) [Example 2m, 3-(6-benzyl-2-dimethylaminomethyl-cyclohept-1-enyl)-phenol hydrochloride] | 10.2 ± 1 | –
CN(C)CC1=C(c2cccc(O)c2)CC(Cc2cccc(O)c2)CCC1 (stereo not drawn) [Example 2n, 3-[2-dimethylaminomethyl)-6-(3-hydroxybenzyl)-cyclohept-1-enyl]-phenol hydrochloride] | 7.4 ± 2.2 | –
CN(C)CC1=C(c2cccc(O)c2)CC(CCc2ccccc2)CCC1 (stereo not drawn) [Example 2o, 3-(2-dimethylaminomethyl-6-phenethyl-cyclohept-1-enyl)-phenol hydrochloride] | 30.6 ± 10.5 | –
Cc1cc(C2CCCC(CN(C)C)=C(c3cccc(O)c3)C2)cc(C)c1O (stereo not drawn) [Example 2p, 3-[2-dimethylaminomethyl)-6-(3,5-dimethyl-4-hydroxyphenyl)-cyclohept-1-enyl]-phenol hydrochloride] | 2.5 | –
CN(CCc1ccccc1)CC1=C(c2cccc(O)c2)CC(c2ccccc2)CCC1.Cl (stereo not drawn) [Example 3, 3-{2-[(methylphenethylamino)-methyl]-6-phenyl-cyclohept-1-enyl}-phenol hydrochloride] | 8.3 ± 3.3 | 3.4
